Results as given in patent US20260364030A1, “NOVEL SELECTIVE INHIBITORS OF LYSYL OXIDASES” (Syntara Limited, priority 2022, published 2026).
Like-named read-outs stand apart in the source and are kept apart here.

Key:
[1] = tested on: breast cancer model (MMTV-PyMT); details: cited from earlier work
[2] = tested on: massive, pedunculated keloids; details: cited from earlier work
[3] = target: T1, Bovine LOX (Bos taurus, UniProt P33072); test: LOX inhibition, hydrogen peroxide Amplex Red oxidation assay; assay type: biochemical; details: 2 h incubation with enzyme at 37 °C
T1 sequence (P33072 170-418): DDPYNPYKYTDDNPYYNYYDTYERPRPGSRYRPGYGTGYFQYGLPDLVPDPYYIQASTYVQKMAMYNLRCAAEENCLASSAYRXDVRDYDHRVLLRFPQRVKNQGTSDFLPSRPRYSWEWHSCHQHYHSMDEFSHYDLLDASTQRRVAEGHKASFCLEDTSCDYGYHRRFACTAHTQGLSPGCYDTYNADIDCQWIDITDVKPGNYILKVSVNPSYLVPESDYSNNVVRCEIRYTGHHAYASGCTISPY
Description: (§1) LOX and LOXL protein family members can be acquired as recombinant active proteins from commercial sources, or extracted from animal tissues like bovine aorta, tendons, pig skin; or prepared from cell cultures. The inhibitory effects of the compounds of the present invention were tested against the given LOX or LOXL preparation using a method based on the detection of hydrogen peroxide with an Amplex Red oxidation assay [Zhou et al, 1997]. The assay was developed using either 384 or 96 well format. Briefly, in a standard black, clear bottom 384 well plate assay 25 µL of a dilution of any of the isoenzymes and orthologues in 1.2 M urea, 50 mM sodium borate buffer (pH 8.2) were added into each well in the presence of […] and 0.5 mM pargyline (to inhibit SSAO and MAO-B and MAO-A, respectively; not necessary if the enzyme is from a recombinant or purified form). […] of a reaction mixture containing twice the KM concentration of putrescine (Sigma Aldrich, e.g. 20 mM for LOX and LOXL1 or 10 mM for LOXL2 and 4 mM for LOXL3 and LOXL4), 120 µM Amplex Red (Thermo Fisher Scientific) and 1.5 U/mL horseradish peroxidase (Sigma Aldrich) prepared in 1.2 M urea, 50 mM sodium borate buffer (pH 8.2) were then added to the corresponding wells. The above volumes were doubled in the case of 96 wells plate. The fluorescence (RFU) was read every 2.5 min for 30 min at 37 °C, excitation 544 nm and emission 590 (Optima; BMG labtech). The slope/min of the kinetics for each well was calculated using MARS data analysis software (BMG labtech) and this value was used to deduce the IC50 value (Dotmatics). The ability of the inventive compounds to inhibit the amine oxidase activity of LOX and other family members is shown in Table 5.

[4] = target: T2, LOXL2 (Homo sapiens, UniProt Q9Y4K0); test: LOXL2 inhibition, Amplex Red oxidation assay; assay type: biochemical; details: 2 h incubation with enzyme at 37 °C; read-out: Human LOXL2 Activity IC50
T2 sequence (Q9Y4K0 26-774): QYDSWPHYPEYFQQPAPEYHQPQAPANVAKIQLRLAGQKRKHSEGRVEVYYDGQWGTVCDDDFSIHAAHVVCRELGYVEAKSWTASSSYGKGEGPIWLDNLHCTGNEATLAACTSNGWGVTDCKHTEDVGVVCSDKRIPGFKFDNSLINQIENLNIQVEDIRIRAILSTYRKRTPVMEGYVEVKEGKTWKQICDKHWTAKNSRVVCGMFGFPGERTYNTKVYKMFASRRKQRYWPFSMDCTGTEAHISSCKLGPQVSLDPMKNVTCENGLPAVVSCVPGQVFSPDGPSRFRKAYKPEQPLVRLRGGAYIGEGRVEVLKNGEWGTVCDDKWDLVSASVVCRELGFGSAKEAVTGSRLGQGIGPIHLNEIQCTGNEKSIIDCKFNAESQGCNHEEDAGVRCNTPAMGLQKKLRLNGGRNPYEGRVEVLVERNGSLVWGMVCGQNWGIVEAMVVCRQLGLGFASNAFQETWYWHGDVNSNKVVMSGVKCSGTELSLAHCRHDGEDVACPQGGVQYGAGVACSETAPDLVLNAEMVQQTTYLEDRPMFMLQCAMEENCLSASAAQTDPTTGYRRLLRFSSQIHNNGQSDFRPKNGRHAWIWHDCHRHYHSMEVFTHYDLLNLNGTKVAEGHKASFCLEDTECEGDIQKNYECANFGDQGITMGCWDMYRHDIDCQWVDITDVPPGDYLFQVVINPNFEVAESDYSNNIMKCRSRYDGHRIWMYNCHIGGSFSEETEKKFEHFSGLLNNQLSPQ
Description: as §1

In the case of `CS(=O)(=O)c1cc(-c2ccccc2)cc(S(=O)(=O)c2ccc(CN)s2)c1` [CCT365623], the Metastasis and survival [1] is listed as “reduce metastasis and increase survival”.

In the case of `COc1cc2c(c(OC)c1OC)-c1ccc(OC)c(=O)cc1[C@@H](NC(C)=O)CC2` [colchicine], the “Effect on surface scarring” value ([2]; human, in vivo) is given as “measurable beneficial effect on surface scarring”.

For `CC(C)(S)[C@@H](N)C(=O)O` [penicillamine], the “Effect on surface scarring” value ([2]; BAPN or penicillamine, and colchicine, following excision of keloid and grafting) is given as “measurable beneficial effect on surface scarring”.

Compound `NC/C(=C\F)CS(=O)(=O)c1cccc([N+](=O)[O-])c1` [Compound 13, (E)-3-fluoro-2-(((3-nitrophenyl)sulfonyl)methyl)prop-2-en-1-amine] has an IC50 [3] of under 2 µM and an IC50 [4] of under 2 µM.

For `CS(=O)(=O)c1cccc(S(=O)(=O)C/C(=C/F)CN)c1` [Compound 23, (E)-3-fluoro-2-(((3-(methylsulfonyl)phenyl)sulfonyl)methyl)prop-2-en-1-amine], the IC50 [3] was under 2 µM and the IC50 [4] was under 2 µM.

Compound `NC/C(=C\F)CS(=O)(=O)c1ccccc1Cl` [Compound 6, (E)-2-(((2-chlorophenyl)sulfonyl)methyl)-3-fluoroprop-2-en-1-amine] has an IC50 [3] of under 5 µM and an IC50 [4] of under 5 µM.

`Cc1ccc(S(=O)(=O)C/C(=C/F)CN)cc1` [Compound 4, (E)-3-fluoro-2-(tosylmethyl)prop-2-en-1-amine] gave an IC50 [3] of under 5 µM and an IC50 [4] of under 2 µM.
